Assay: Inhibition of GP2b/3a in human platelet-rich plasma assessed as reduction in collagen-induced platelet aggregation preincubated for 1 min followed by collagen addition by aggregometric analysis

IC50 [µM]	Compound
0.05	CCOC(=O)CC1CCN(C(=O)CC(CC)NC(=O)c2ccc(C(=N)N3CCSC3)cc2F)CC1 (stereo not drawn)
3.1	CCOC(=O)CC1CCN(C(=O)C(C)(C)[C@H](CC)NC(=O)c2ccc(C(=N)N3CCSC3)cc2F)CC1
0.022	CCOC(=O)CC1CCN(C(=O)C(C)(C)[C@@H](CC)NC(=O)c2ccc(C(=N)N3CCSC3)cc2F)CC1 [(1-{3-[2-Fluoro-4-(imino-thiazolidin-3-yl-methyl)-benzoylamino]-2,2-dimethyl-pentanoyl}-piperidin-4-yl)-acetic acid ethyl ester(NSL-96184)]

Reference: BindingDB's records for doi:10.1021/acs.jmedchem.7b00315 (St. John'S University, 2018)
